These results are taken from patent publication US12129246B1, “Hydroquinazoline derivatives for the treatment of a disease or disorder” (Novartis AG, priority 2023, dated 2024).

Where two headings read alike, the source gives them in different places.

For assay [1], the target named is T1, human NPR1 (Homo sapiens, UniProt P16066).
T1 construct: host or cells: CHO-K1
T1 sequence (P16066 33-1061): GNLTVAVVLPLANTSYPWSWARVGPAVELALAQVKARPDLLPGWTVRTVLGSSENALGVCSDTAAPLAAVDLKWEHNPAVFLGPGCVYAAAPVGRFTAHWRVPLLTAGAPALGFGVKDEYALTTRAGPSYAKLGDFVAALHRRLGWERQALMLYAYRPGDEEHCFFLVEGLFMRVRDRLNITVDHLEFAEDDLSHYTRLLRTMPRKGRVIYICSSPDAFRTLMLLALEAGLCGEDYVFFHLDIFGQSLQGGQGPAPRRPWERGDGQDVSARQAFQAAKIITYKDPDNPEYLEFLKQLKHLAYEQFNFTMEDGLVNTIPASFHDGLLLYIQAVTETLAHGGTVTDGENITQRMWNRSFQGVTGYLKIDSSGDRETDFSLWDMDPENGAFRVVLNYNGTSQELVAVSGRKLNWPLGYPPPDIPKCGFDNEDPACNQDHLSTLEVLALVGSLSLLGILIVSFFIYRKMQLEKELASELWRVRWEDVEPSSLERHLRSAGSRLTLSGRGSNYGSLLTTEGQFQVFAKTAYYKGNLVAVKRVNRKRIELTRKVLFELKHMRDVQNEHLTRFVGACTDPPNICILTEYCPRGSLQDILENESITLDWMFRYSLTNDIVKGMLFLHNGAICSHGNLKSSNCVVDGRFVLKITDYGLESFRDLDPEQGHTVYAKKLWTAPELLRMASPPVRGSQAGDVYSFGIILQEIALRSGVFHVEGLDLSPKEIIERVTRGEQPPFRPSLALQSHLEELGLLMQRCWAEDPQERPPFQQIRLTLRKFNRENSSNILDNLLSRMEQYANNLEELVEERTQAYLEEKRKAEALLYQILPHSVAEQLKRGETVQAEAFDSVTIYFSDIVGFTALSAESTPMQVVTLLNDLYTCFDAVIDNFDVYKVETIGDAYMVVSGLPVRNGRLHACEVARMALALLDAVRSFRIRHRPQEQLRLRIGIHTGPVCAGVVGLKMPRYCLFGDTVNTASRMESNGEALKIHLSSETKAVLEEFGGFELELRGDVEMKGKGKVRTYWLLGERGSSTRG
The assay can be described thus: Cellular cGMP production assay, human NPR1 expressing CHO-K1 cells (CisBio HTRF). The assay is classed as cell-based. Conditions: for AC50: cGMP production, 30 min at 37° C., 12-point dose-response from 30 μM; for Human NPR1 Amax (% of ANP): maximum cGMP production as percentage of the maximum cGMP produced with ANP. As to the method: (§1) Cellular cGMP is a major second messenger that mediates cell activities and is synthesized by activated NPR1 triggered by binding of the natural ligand ANP. […] The assay was performed according to manufacturer's instructions with minor deviations. […] All compound stocks were diluted in PBS+0.1% BSA at 2-fold the final assay concentration. After addition of 10 μL/well of assay buffer (PBS+0.1% BSA+1 mM IBMX) and 10 μL/well of the compounds in different concentrations (12-point dose-response with 3-fold dilutions from a top concentration of 30 μM), the plate was incubated for 30 min at 37° C. to allow for cGMP production. In parallel, a standard curve using a calibrator (contained in the kit) was generated. The cells were lysed and a mix of cGMP-d2 and anti-cGMP-cryptate was added and incubated for 1 h at room temperature. The readout was performed using an Envision plate reader (PerkinElmer) with an excitation wavelength of 317 nm and an emission wavelength of 665 nm. cGMP concentration (Delta F [° %]) was calculated according to the following formulae: […]
(Time-resolved FRET reads energy transfer from a long-lived donor to a nearby acceptor.)

Assay [2] concerns the target monkey NPR1 (Macaca fascicularis, UniProt A0A7N9DBT9). In words: Cellular cGMP production assay, monkey NPR1 expressing CHO-K1 cells (CisBio HTRF). The assay is classed as cell-based. Conditions: for Monkey NPR1 Amax (% of ANP): maximum cGMP production as percentage of the maximum cGMP produced with ANP. As for the experimental part: as §1
[3] abbreviates: cGMP production, monkey NPR1 CHO-K1 cells, 30 min at 37° C., 12-point dose-response from 30 μM, read-out: Monkey NPR1 AC50.

Chain of monkey NPR1 (A0A7N9DBT9 entry or part of it): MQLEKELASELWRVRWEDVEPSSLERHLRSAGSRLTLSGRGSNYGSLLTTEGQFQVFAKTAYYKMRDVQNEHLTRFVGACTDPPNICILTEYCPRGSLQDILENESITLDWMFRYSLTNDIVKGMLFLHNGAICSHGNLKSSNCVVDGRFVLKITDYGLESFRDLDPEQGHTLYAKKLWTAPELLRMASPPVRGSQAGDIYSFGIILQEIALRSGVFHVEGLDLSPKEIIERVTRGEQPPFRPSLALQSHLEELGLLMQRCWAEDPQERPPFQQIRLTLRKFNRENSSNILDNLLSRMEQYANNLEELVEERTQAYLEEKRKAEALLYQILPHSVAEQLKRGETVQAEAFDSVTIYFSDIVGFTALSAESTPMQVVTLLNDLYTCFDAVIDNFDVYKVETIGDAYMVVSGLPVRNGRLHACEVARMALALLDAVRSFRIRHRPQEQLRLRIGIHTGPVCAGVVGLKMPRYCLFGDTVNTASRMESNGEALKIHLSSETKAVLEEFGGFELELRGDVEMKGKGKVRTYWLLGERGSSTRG

For the compound `CC[C@@H](N(C)c1nc2c(c(N[C@@H](CN3C4CCCC3CCC4)c3cnn(C)c3)n1)C[C@H](c1ccc(F)cc1)CC2)C12CC(C(=O)O)(C1)C2` [Compound 11, 3-((R)-1-(((R)-4-(((R)-2-((1S,5S)-9-azabicyclo[3.3.1]nonan-9-yl)-1-(1-methyl-1H-pyrazol-4-yl)ethyl)amino)-6-(4-fluorophenyl)-5,6,7,8-tetrahydroquinazolin-2-yl)(methyl)amino)propyl)bicyclo[1.1.1]pentane-1-carboxylic acid], in assay [1], half-maximal activity (AC50) was put at 94 nM and the “Human NPR1 Amax (% of ANP)” value is recorded as 103.738 % of ANP. Further, the half-maximal activity concentration (AC50) (commonly the concentration giving half of the maximal activity seen) in assay [2] came to 70 nM. Further, the “Monkey NPR1 Amax (% of ANP)” value in assay [2] (monkey NPR1 CHO-K1 cells) is reported as 113.853 % of ANP.

For the compound `CC[C@@H](N(C)c1nc2c(c(N[C@@H](CN3CCC[C@H](CF)C3)c3cnn(C)c3)n1)C[C@](C)(c1ccccc1)CC2)C12CC(C(=O)O)(C1)C2` [Compound 12, 3-((R)-1-(((R)-4-(((R)-2-((S)-3-(fluoromethyl)piperidin-1-yl)-1-(1-methyl-1H-pyrazol-4-yl)ethyl)amino)-6-methyl-6-phenyl-5,6,7,8-tetrahydroquinazolin-2-yl)(methyl)amino)propyl)bicyclo[1.1.1]pentane-1-carboxylic acid], in assay [1], the AC50 is 94 nM and the “Human NPR1 Amax (% of ANP)” value is recorded as 96.068 % of ANP. The AC50 in assay [2] (setting [3]) is 73 nM. Also, the “Monkey NPR1 Amax (% of ANP)” value in assay [2] (monkey NPR1 CHO-K1 cells) is 95.099 % of ANP.

For `CC[C@@H](N(C)c1nc2c(c(N[C@@H](CN3CCC[C@H](C)C3)c3cnn(CC)c3)n1)C[C@H](c1cccc(F)c1)CC2)C12CC(C(=O)O)(C1)C2` [Compound 13, 3-((R)-1-(((R)-4-(((R)-1-(1-ethyl-1H-pyrazol-4-yl)-2-((S)-3-methylpiperidin-1-yl)ethyl)amino)-6-(3-fluorophenyl)-5,6,7,8-tetrahydroquinazolin-2-yl)(methyl)amino)propyl)bicyclo[1.1.1]pentane-1-carboxylic acid], the values for the AC50 in assay [1] and in assay [2] (setting [3]) were 94 nM and 64 nM, respectively. For the same compound, the “Human NPR1 Amax (% of ANP)” value in assay [1] is reported as 99.405 % of ANP. For the same compound, the “Monkey NPR1 Amax (% of ANP)” value in assay [2] (monkey NPR1 CHO-K1 cells) is reported as 100.145 % of ANP.

With `CC[C@H]([C@H]1CC[C@H](C(=O)O)CC1)N(C)c1nc2c(c(N[C@@H](CN3CCC[C@H](C)C3)c3cnn(C)c3)n1)C[C@H](c1ccc(F)cc1)CC2` [Compound 14, (1R,4r)-4-((R)-1-(((R)-6-(4-fluorophenyl)-4-(((R)-1-(1-methyl-1H-pyrazol-4-yl)-2-((S)-3-methylpiperidin-1-yl)ethyl)amino)-5,6,7,8-tetrahydroquinazolin-2-yl)(methyl)amino)propyl)cyclohexane-1-carboxylic acid], in assay [1], half-maximal activity (AC50) was put at 97 nM and the “Human NPR1 Amax (% of ANP)” value was 94.761 % of ANP. For the same compound, the AC50 in assay [2] (setting [3]) came out at 62 nM. For the same compound, in assay [2] (monkey NPR1 CHO-K1 cells), the “Monkey NPR1 Amax (% of ANP)” value was 88.286 % of ANP.

Consider `CC[C@@H](Nc1nc2c(c(N[C@@H](CN3C4CCCC3CCC4)c3cnn(C)c3)n1)C[C@H](c1cccc(F)c1)CC2)[C@H]1CC[C@H](C(=O)O)CC1` [Compound 15, (1R,4r)-4-((R)-1-(((R)-4-(((R)-2-((1S,5S)-9-azabicyclo[3.3.1]nonan-9-yl)-1-(1-methyl-1H-pyrazol-4-yl)ethyl)amino)-6-(3-fluorophenyl)-5,6,7,8-tetrahydroquinazolin-2-yl)amino)propyl)cyclohexane-1-carboxylic acid], for which the AC50 in assay [1] was 102 nM; in assay [2], 92 nM. Besides, in assay [1], the “Human NPR1 Amax (% of ANP)” value is 106.001 % of ANP. The “Monkey NPR1 Amax (% of ANP)” value in assay [2] (monkey NPR1 CHO-K1 cells) is recorded as 109.175 % of ANP.

For the compound `CC[C@H]([C@H]1CC[C@H](C(=O)O)CC1)N(C)c1nc2c(c(N[C@@H](CN3C4CCCC3CC4)c3cnn(C)c3C)n1)C[C@H](c1cccc(F)c1)CC2` [Compound 16, (1R,4r)-4-((1R)-1-(((6R)-4-(((1R)-2-(8-azabicyclo[3.2.1]octan-8-yl)-1-(1,5-dimethyl-1H-pyrazol-4-yl)ethyl)amino)-6-(3-fluorophenyl)-5,6,7,8-tetrahydroquinazolin-2-yl)(methyl)amino)propyl)cyclohexane-1-carboxylic acid], in assay [1], half-maximal activity (AC50) was put at 103 nM and the “Human NPR1 Amax (% of ANP)” value was 100.021 % of ANP. Further, the activity in assay [2] was half-maximal at 47 nM (AC50). In addition, in assay [2] (monkey NPR1 CHO-K1 cells), the “Monkey NPR1 Amax (% of ANP)” value is 98.785 % of ANP.

`CC[C@@H](Nc1nc2c(c(N[C@@H](CN3C4CCCC3CCC4)c3cnn(CC)c3)n1)C[C@H](c1cccc(F)c1)CC2)[C@H]1CC[C@H](C(=O)O)CC1` [Compound 17, (1R,4r)-4-((R)-1-(((R)-4-(((R)-2-((1S,5S)-9-azabicyclo[3.3.1]nonan-9-yl)-1-(1-ethyl-1H-pyrazol-4-yl)ethyl)amino)-6-(3-fluorophenyl)-5,6,7,8-tetrahydroquinazolin-2-yl)amino)propyl)cyclohexane-1-carboxylic acid]: in assay [1], the activity was half-maximal at 105 nM (AC50) and the “Human NPR1 Amax (% of ANP)” value is given as 97.959 % of ANP. Besides, the AC50 in assay [2] came out at 68 nM. The “Monkey NPR1 Amax (% of ANP)” value in assay [2] (monkey NPR1 CHO-K1 cells) is 99.682 % of ANP.

As for `CC[C@H]([C@H]1CC[C@H](C(=O)O)CC1)N(C)c1nc2c(c(N[C@@H](CN3C4CCCC3CCC4)c3cnn(CC)c3)n1)C[C@H](c1cccc(F)c1)CC2` [Compound 18, (1R,4r)-4-((R)-1-(((R)-4-(((R)-2-((1S,5S)-9-azabicyclo[3.3.1]nonan-9-yl)-1-(1-ethyl-1H-pyrazol-4-yl)ethyl)amino)-6-(3-fluorophenyl)-5,6,7,8-tetrahydroquinazolin-2-yl)(methyl)amino)propyl)cyclohexane-1-carboxylic acid], in assay [1], the AC50 amounted to 107 nM and the “Human NPR1 Amax (% of ANP)” value is 97.609 % of ANP. Moreover, in assay [2], the AC50 worked out at 71 nM. Besides, in assay [2] (monkey NPR1 CHO-K1 cells), the “Monkey NPR1 Amax (% of ANP)” value was 100.607 % of ANP.

Regarding `CC[C@H]([C@H]1CC[C@H](C(=O)O)CC1)N(C)c1nc2c(c(N[C@@H](CN3CCC[C@H](CF)C3)c3cnn(C)c3)n1)C[C@H](c1cccc(F)c1)CC2` [Compound 19, (1R,4r)-4-((R)-1-(((R)-4-(((R)-2-((S)-3-(fluoromethyl)piperidin-1-yl)-1-(1-methyl-1H-pyrazol-4-yl)ethyl)amino)-6-(3-fluorophenyl)-5,6,7,8-tetrahydroquinazolin-2-yl)(methyl)amino)propyl)cyclohexane-1-carboxylic acid], the results for the AC50 in assay [1] and in assay [2] (setting [3]) were 108 nM and 82 nM, respectively. In assay [1], the “Human NPR1 Amax (% of ANP)” value was 100.504 % of ANP. Besides, the “Monkey NPR1 Amax (% of ANP)” value in assay [2] (monkey NPR1 CHO-K1 cells) is on record as 98.174 % of ANP.

For the compound `CC[C@@H](Nc1nc2c(c(N[C@@H](CN3CCC[C@H](C)C3)c3cnn(C)c3)n1)C[C@](C)(c1ccccc1F)CC2)[C@H]1CC[C@H](C(=O)O)CC1` [Compound 20, (1R,4r)-4-((R)-1-(((R)-6-(2-fluorophenyl)-6-methyl-4-(((R)-1-(1-methyl-1H-pyrazol-4-yl)-2-((S)-3-methylpiperidin-1-yl)ethyl)amino)-5,6,7,8-tetrahydroquinazolin-2-yl)amino)propyl)cyclohexane-1-carboxylic acid], in assay [1], the activity was half-maximal at 109 nM (AC50) and the “Human NPR1 Amax (% of ANP)” value is 95.253 % of ANP. Also, the AC50 in assay [2] (setting [3]) came to 60 nM. The “Monkey NPR1 Amax (% of ANP)” value in assay [2] (monkey NPR1 CHO-K1 cells) is reported as 92.710 % of ANP.

With `CC[C@@H]([C@H]1CC[C@@](F)(C(=O)O)CC1)N(C)c1nc2c(c(N[C@H](CN3CCC[C@@H](C)C3)c3cnn(C)c3)n1)C[C@@H](c1ccccc1)CC2` [Compound 21, (1S,4r)-1-fluoro-4-((S)-1-(methyl((S)-4-(((S)-1-(1-methyl-1H-pyrazol-4-yl)-2-((R)-3-methylpiperidin-1-yl)ethyl)amino)-6-phenyl-5,6,7,8-tetrahydroquinazolin-2-yl)amino)propyl)cyclohexane-1-carboxylic acid], in assay [1], the AC50 came to 111 nM and the “Human NPR1 Amax (% of ANP)” value was 96.122 % of ANP. In assay [2] (setting [3]), the AC50 stood at 93 nM. In assay [2] (monkey NPR1 CHO-K1 cells), the “Monkey NPR1 Amax (% of ANP)” value is 101.974 % of ANP.
